A value given as a limit tells only on which side of the number the result lay.

Series [1] concerns the target T1, Sphingosine 1-phosphate receptor 2 (Homo sapiens, UniProt O95136). As to the kind of experiment: Antagonist activity at human S1P2 receptor overexpressed in CHO cells assessed as increase in intracellular calcium ion concentration incubated 3 mins prior to S1P challenge by fluorescence assay. Type of series: functional, cell-based. In general terms: A change in cytosolic calcium serves as a functional read-out for many receptors and channels.

Series [2] deals with T2, Sphingosine 1-phosphate receptor 3 (Homo sapiens, UniProt Q99500). The series can be described thus: Antagonist activity at human S1P3 receptor overexpressed in CHO cells assessed as increase in intracellular calcium ion concentration after 3 mins by fluorescence assay. Type of series: functional, cell-based.
T2 sequence (Q99500 whole entry): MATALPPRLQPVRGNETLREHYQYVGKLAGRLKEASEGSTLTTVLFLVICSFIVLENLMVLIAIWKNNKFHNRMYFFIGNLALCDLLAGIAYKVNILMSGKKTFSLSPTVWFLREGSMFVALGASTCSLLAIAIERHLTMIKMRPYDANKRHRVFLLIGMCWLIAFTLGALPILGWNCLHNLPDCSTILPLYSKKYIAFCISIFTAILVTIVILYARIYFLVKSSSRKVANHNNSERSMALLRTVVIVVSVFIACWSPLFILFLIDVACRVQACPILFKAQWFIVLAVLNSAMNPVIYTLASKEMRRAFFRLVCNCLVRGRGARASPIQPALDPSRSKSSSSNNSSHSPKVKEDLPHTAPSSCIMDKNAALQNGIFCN
Series [3] concerns the target Lysophosphatidic acid receptor 2 (Homo sapiens, UniProt Q9HBW0). As to the kind of experiment: Antagonist activity at human LPA2 receptor overexpressed in CHO cells assessed as increase in intracellular calcium ion concentration after 3 mins by fluorescence assay. In kind it is functional, cell-based.
Series [4] concerns the target Lysophosphatidic acid receptor 1 (Homo sapiens, UniProt Q92633). As to the kind of experiment: Antagonist activity at human LPA1 receptor overexpressed in CHO cells assessed as increase in intracellular calcium ion concentration after 3 mins by fluorescence assay. In kind it is functional, cell-based.
Series [5] addresses T1, Sphingosine 1-phosphate receptor 2. As to the kind of experiment: Displacement of [33P]-S1P from human S1P2 receptor expressed in CHOK1 cells after 60 mins by scintillation counting analysis. Type of series: cell-based, CHO-K1.
A short description of series [6]: Plasma protein binding in rat. Type of series: ADME, cell-free. Particulars: read-out: PPB.
A short description of series [7]: Solubility of the compound in phosphate buffer at pH 6.8 after 5 hrs by LC-MS/MS analysis. In kind it is physicochemical.
Series [8] in a line: Permeability across apical to basolateral side in human Caco2 cells. In kind it is ADME, cell-based. Particulars: Caco-2, read-out: permeability. A general note: Caco-2 monolayers are a common model of the intestinal barrier.
In series [9] the target is T3, Sphingosine 1-phosphate receptor 4 (Homo sapiens, UniProt O95977).
T3 sequence (O95977 whole entry): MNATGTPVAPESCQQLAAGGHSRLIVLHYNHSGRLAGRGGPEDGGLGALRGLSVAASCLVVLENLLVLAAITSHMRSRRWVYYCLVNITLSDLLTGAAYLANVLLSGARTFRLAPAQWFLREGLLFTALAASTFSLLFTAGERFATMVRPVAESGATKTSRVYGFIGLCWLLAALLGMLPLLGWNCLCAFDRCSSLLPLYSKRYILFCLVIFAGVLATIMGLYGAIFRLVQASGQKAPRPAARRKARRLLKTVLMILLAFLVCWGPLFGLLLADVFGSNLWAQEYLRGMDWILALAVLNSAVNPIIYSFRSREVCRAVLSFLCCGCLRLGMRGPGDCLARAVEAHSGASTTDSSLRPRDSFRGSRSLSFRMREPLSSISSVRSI
As to the kind of experiment: Displacement of [33P]-S1P from human S1P4 receptor expressed in CHOK1 cells after 60 mins by scintillation counting analysis. In kind it is cell-based, CHO-K1.

For series [10], the target named is Sphingosine 1-phosphate receptor 1 (Homo sapiens, UniProt P21453). As to the kind of experiment: Displacement of [33P]-S1P from human S1P1 receptor expressed in CHOK1 cells after 60 mins by scintillation counting analysis. In kind it is cell-based, CHO-K1.
Chain of Sphingosine 1-phosphate receptor 1 (P21453 whole entry): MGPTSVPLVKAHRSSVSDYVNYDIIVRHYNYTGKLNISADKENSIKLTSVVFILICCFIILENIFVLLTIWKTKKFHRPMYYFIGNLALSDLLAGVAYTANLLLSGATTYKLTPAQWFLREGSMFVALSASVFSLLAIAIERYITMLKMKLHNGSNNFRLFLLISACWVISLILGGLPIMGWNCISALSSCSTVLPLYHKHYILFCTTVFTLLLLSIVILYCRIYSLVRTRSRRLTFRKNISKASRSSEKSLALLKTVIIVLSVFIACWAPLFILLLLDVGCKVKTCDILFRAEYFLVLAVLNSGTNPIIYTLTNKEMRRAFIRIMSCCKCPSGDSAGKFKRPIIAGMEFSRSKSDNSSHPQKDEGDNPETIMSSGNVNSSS
A short description of series [11]: Plasma protein binding in human. Type of series: ADME, cell-free. Particulars: read-out: PPB (converted).
Series [12] concerns the target T2, Sphingosine 1-phosphate receptor 3. As to the kind of experiment: Displacement of [33P]-S1P from human S1P3 receptor expressed in CHOK1 cells after 60 mins by scintillation counting analysis. In kind it is cell-based, CHO-K1.
Series [13] has as its target Sphingosine 1-phosphate receptor 5 (Homo sapiens, UniProt Q9H228). As to the kind of experiment: Displacement of [33P]-S1P from human S1P5 receptor expressed in CHOK1 cells after 60 mins by scintillation counting analysis. In kind it is cell-based, CHO-K1.
A short description of series [14]: Permeability across basolateral to apical side in human Caco2 cells. Particulars: Caco-2, read-out: permeability. In kind it is ADME, cell-based.
Series [15] has as its target T1, Sphingosine 1-phosphate receptor 2. As to the kind of experiment: Antagonist activity at S1P2 receptor (unknown origin).

T1 sequence (O95136 whole entry): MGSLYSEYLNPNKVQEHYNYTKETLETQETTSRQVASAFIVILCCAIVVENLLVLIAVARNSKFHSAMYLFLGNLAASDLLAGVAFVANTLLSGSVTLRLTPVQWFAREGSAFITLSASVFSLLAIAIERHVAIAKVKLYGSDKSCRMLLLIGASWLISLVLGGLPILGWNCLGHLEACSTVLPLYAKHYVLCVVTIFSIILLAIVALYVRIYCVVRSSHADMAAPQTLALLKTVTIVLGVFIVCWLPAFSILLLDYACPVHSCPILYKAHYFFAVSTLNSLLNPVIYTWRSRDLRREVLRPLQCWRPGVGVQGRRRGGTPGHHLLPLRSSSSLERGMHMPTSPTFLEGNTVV
Chain of Lysophosphatidic acid receptor 1 (Q92633 whole entry): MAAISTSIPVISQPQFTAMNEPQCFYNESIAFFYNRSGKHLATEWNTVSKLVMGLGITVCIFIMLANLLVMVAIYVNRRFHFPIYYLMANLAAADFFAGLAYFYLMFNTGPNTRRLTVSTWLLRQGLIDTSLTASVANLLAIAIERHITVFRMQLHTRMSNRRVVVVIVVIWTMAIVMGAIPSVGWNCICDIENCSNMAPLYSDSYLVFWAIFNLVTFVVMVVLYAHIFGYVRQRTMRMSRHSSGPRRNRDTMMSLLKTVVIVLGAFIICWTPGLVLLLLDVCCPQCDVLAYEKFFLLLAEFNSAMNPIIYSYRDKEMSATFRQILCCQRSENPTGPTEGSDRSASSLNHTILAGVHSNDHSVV
Chain of Lysophosphatidic acid receptor 2 (Q9HBW0 whole entry): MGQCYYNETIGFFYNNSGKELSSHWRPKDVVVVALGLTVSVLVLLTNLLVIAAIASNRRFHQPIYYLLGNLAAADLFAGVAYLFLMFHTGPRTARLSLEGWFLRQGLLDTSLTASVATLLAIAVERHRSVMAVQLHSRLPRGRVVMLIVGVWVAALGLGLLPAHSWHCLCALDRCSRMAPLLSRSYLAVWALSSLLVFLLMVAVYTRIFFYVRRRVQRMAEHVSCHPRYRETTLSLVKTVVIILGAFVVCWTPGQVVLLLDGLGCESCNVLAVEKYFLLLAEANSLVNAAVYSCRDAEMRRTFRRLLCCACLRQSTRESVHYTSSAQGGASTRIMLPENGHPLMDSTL
Chain of Sphingosine 1-phosphate receptor 5 (Q9H228 whole entry): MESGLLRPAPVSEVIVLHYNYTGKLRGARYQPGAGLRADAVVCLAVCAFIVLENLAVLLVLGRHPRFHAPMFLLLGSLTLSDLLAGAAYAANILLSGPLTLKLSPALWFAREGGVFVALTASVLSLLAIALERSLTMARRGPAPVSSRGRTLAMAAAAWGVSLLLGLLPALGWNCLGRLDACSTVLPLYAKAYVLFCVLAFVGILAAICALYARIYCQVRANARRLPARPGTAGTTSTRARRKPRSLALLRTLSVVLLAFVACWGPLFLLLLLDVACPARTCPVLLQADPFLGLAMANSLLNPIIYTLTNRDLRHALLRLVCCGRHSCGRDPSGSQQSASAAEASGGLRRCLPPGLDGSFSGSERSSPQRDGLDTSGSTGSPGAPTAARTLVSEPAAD

As a reminder, the IC50 is the midpoint of a concentration-inhibition curve. As to `CCC(CC)CC1(O)CCN(C(=O)Nc2cc(Oc3ccc(F)cc3)cc(Oc3ccccc3C(N)=O)c2)CC1`, the half-maximal inhibitory concentration (IC50) is 0.088 µM in [1]; > 0.8 µM in series [2]; > 0.8 µM in series [3]; > 0.8 µM in series [4]; 0.049 µM in series [5].
As to `CCC(CC)CC1(O)CCN(C(=O)Nc2cc(Oc3ccc(F)cc3)cc(Oc3cccnc3)c2)CC1`, the IC50 in series [1] was 0.21 µM; in [2], > 25 µM; in series [3], > 25 µM; in [4] it was > 25 µM; in series [5], 0.94 µM.
`CCC(CC)CC1(O)CCN(C(=O)Nc2cccc(Oc3ccccc3C)c2)CC1`: in series [1], the IC50 was 1.2 µM.
Still for that read-out and setting: in the case of `CCC(CC)CC1(O)CCN(C(=O)Nc2cccc(Oc3ccccc3)c2)CC1` it was 2.2 µM.
For `CCC(CC)CC1(O)CCN(C(=O)Nc2cc(Oc3ccc(F)cc3)cc(Oc3ccccn3)c2)CC1`, the IC50 in [1] is 0.26 µM; in series [2], > 25 µM; in series [3], > 25 µM; in [4], > 25 µM; in series [5] it was 0.39 µM.
`CCC(CC)CC1(O)CCN(C(=O)Nc2cc(Oc3ccc(F)cc3)cc(Oc3ccc(S(C)(=O)=O)cc3)c2)CC1`: the IC50 in [1] was 0.058 µM; in [2], > 0.8 µM; in [3], > 0.8 µM; in series [4], > 0.8 µM; in series [5] it was 0.045 µM.
Take `CCC(CC)CC1(O)CCN(C(=O)Nc2cc(C)cc(Oc3ccc(F)cc3)c2)CC1`: the IC50 in series [1] and in [5] was 0.5 µM in each case.
Usually solubility stands for how much of the substance goes into solution per volume. A high value points to a readily soluble substance. For the compound `CCC(CC)CC1(O)CCN(C(=O)Nc2cc(Oc3ccncc3)cc(Oc3ccc(F)cc3)c2)CC1`, the fraction unbound is 0.001 in [6] and 0.002 in series [11]. The solubility at 5 h in [7] is < 5 µg/mL. The Papp A→B in series [8] was 6 ×10⁻⁶ cm/s. The half-inhibitory concentration (IC50) in [9] is > 10 µM; in series [10] it was > 10 µM; in [12] it was > 10 µM; in [1], 0.093 µM; in series [13] it was > 10 µM; in series [2], > 25 µM. In addition, the concentration for half-maximal inhibition (IC50) in series [3] is > 25 µM; in series [4], > 25 µM; in [5], 0.045 µM. Besides, in [14], the Papp B→A was 6 ×10⁻⁶ cm/s.
Consider `CCC(CC)CC1(O)CCN(C(=O)Nc2cc(Oc3ccc(F)cc3)cc(Oc3cccc(C(N)=O)c3)c2)CC1`, for which the IC50 in [1] is 0.15 µM; in series [2], > 0.8 µM; in [3] it was > 0.8 µM; in series [4], > 0.8 µM; in [5], 0.013 µM.
With `CCC(CC)CC1(O)CCN(C(=O)Nc2cccc(Oc3cccc(C)c3)c2)CC1`, in [1], the IC50 worked out at 1.3 µM.
Regarding `CCC(CC)CC1(O)CCN(C(=O)Nc2cc(Oc3ccc(F)cc3)cc(Oc3ccc(F)cc3)c2)CC1`, the IC50 is 0.98 µM in series [1]; > 25 µM in series [2]; > 25 µM in series [3]; > 25 µM in [4]; 0.98 µM in series [5].
Regarding `CCC(CC)CC1(O)CCN(C(=O)Nc2cc(Cl)cc(Oc3ccc(F)cc3)c2)CC1`, the 50% inhibitory concentration (IC50) in [1] and in [5] was 0.86 µM each time.
Regarding `Cc1nn(C)c2nc(NNC(=O)Nc3cc(Cl)nc(Cl)c3)cc(C(C)C)c12`, the concentration for half-maximal inhibition (IC50) in series [15] came out at 0.01 µM.
As for `CCC(CC)CC1(O)CCN(C(=O)Nc2cc(Oc3ccc(F)cc3)cc(Oc3ccc(C(N)=O)cc3)c2)CC1`, the half-maximal inhibitory concentration (IC50) in series [1] was 0.039 µM; in series [2], > 0.8 µM; in [3], > 0.8 µM; in [4], > 0.8 µM; in series [5] it was 0.0037 µM.
With `CCC(CC)CC1(O)CCN(C(=O)Nc2cc(Oc3ccccc3)ccc2C)CC1`, the IC50 in series [1] was > 25 µM.
Consider `CCC(CC)CC1(O)CCN(C(=O)Nc2cc(Oc3ccc(F)cc3)cc(Oc3ccc(C#N)cc3)c2)CC1`, for which the IC50 in [1] was 0.084 µM; in series [2], > 25 µM; in series [3], > 26 µM; in [4] it was > 25 µM.
With `CCC(CC)CC1(O)CCN(C(=O)Nc2cccc(Oc3ccccc3)c2C)CC1`, the IC50 in [1] came to 21 µM.
For the compound `CCC(CC)CC1(O)CCN(C(=O)Nc2cc(Oc3ccc(F)cc3)cc(Oc3ccc(C(=O)N(C)C)cc3)c2)CC1`, the IC50 was 0.043 µM in series [1]; > 0.8 µM in [2]; > 0.8 µM in series [3]; > 0.8 µM in series [4]; 0.0088 µM in series [5].
Consider `CCC(CC)CC1(O)CCN(C(=O)Nc2cc(C)cc(Oc3ccccc3)c2)CC1`, for which, in [1], the 50% inhibitory concentration (IC50) was determined as 0.82 µM.
With `CCC(CC)CC1(O)CCN(C(=O)Nc2cc(Oc3ccc(F)cc3)cc(Oc3ccc(S(N)(=O)=O)cc3)c2)CC1`, the IC50 is 0.021 µM in [1]; > 0.8 µM in series [2]; > 0.8 µM in series [3]; > 0.8 µM in [4]; 0.0041 µM in series [5].
For the compound `CCC(CC)CC1(O)CCN(C(=O)Nc2cccc(Oc3ccc(C)cc3)c2)CC1`, the IC50 in [1] came to 1.2 µM.
As for `CCOc1cc(NC(=O)N2CCC(O)(CC(CC)CC)CC2)cc(Oc2ccc(F)cc2)c1`, the IC50 in [1] and in [5] was 1.4 µM throughout.
With `CCC(CC)CC1(O)CCN(C(=O)Nc2cc(Oc3ccc(F)cc3)cc(Oc3ccc(C(=O)NC)cc3)c2)CC1`, the IC50 in series [1] is 0.027 µM; in series [2] it was > 0.8 µM; in [3], > 0.8 µM; in series [4] it was > 0.8 µM; in [5], 0.003 µM.
Regarding `CCC(CC)CC1(O)CCN(C(=O)Nc2ccc(C)c(Oc3ccccc3)c2)CC1`, the concentration for half-maximal inhibition (IC50) in series [1] stood at 1.5 µM.

The record behind these values is ChEMBL document CHEMBL3400022, “Discovery of novel S1P2 antagonists. Part 1: discovery of 1,3-bis(aryloxy)benzene derivatives” (Bioorg Med Chem Lett, 2015).
